From patent US9216169B2, “Pharmaceutical composition comprising candesartan or ester thereof and chlortalidone, and use thereof” (TIANJIN INSTITUTE OF PHARMACEUTICAL RESEARCH, priority 2011, dated 2015)
Where “and” joins values, the source holds several entries; their conditions need not be identical. Identical values can stand only once.

Experiments:
[1] = test system: Spontaneously hypertensive rats (SHR); test: SBP of SHR by Tail-Cuff method, continuous intragastric administration for 8 days (Examples 1-7); type: in vivo, rat; conditions: for maximum reduction of the blood pressure / SBP / SBP difference value compared with the basic value / AUC0-24h (area under blood pressure reduction-time curve): Can 0.36 mg/kg i.g. 8 days; for maximum reduction of the blood pressure: 0-24 h after last administration; for AUC0-24h (area under blood pressure reduction-time curve): after last administration
Experimental: (§1) Spontaneously hypertensive rats (SHR), male, are provided by Beijing Vital River Laboratory Animal Technology Co., Ltd. The number of animal production license is SCXK (Jing) 2007-0001. Animals are raised in an observation room at the room temperature of 25±2° C. controlled by central air-conditioning system and with artificial lighting of 12 h/day. The animals are raised in separate cages sized 43×27×18 cm with 4 animals for each cage. The rats are free access to water and are fed with block fodder everyday, and the water supply is refreshed once a day. The temperature of the room for measuring the blood pressure is 26±2° C.
(§2) The blood pressure is measured by Tail-Cuff method and the hear rate is measured according to the pulse frequency. Animals are pre-trained for the blood pressure measurement for more than 2 weeks so as to adapt to the environment of measurement. Animals are placed in a isothermal bag at 37° C. to be prewarmed for 5 to 10 min for formal measurement. Blood pressures of the rats are measured from tail arteries for 2 to 3 times at rest states, and an average value is taken as each blood pressure measured value. All data are collected and preserved by a computer.
SHRs with systolic blood pressures (SBPs) >190 mmHg are selected for experiment.
Rats are randomly divided into 14 groups according to their blood pressures with each group having 7 rats. Animals are fasted overnight and measured for the blood pressure of pre-administration at the day of experiment, and then administered drugs in accordance with the following method:
The single-drug group is intragastrically administered candesartan (Can) or chlorthalidone (Chl), with the dosage of Can of 0.36 mg/kg and the dosages of Chl of 0.0675, 0.36, 0.54, 0.72, 1.125 and 2.25 mg/kg respectively;
The pharmaceutical composition is administered with 6 different doses (denoted by F1, F2, F3, F4, F5 and F6 respectively). Specifically, the ratios of the dosages of Can+Chl in all pharmaceutical compositions are:
The administration volumes are all 5 ml/kg.
Rats are continuously administered for 8 days. SBPs are measured 2, 4, 8, 12 and 24 hours after the last administration. The area under blood pressure reduction-time curve from 0 to 24 h (AUC0-24) and the maximum blood pressure reduction value are calculated.
(§3) The calculated results are expressed as mean±standard error ( x±SE); statistical treatment is performed using unpaired t test between groups to compare the significance of the average difference; the interaction between drugs are determined by using factorial analysis of variance, and P<0.05 means the difference has statistical significance.

[2] = test system: Spontaneously hypertensive rats (SHR); test: SBP of SHR by Tail-Cuff method, first administration and continuous administration for 14 days (Examples 8-12); type: in vivo, rat; conditions: for AUC0-24h: after first administration
Experimental: as §1, §2
SHRs with systolic blood pressures (SBPs)>190 mmHg are selected for experiment.
Rats are randomly divided into 20 groups according to their blood pressures with each group having 8-10 rats. Animals are fasted overnight and measured for the blood pressure of pre-administration at the day of experiment, and then administered drugs in accordance with the following method:
The single-drug group is intragastrically administered candesartan (Can) or chlorthalidone (Chl), with the dosage of Can of 0.1, 0.2, 0.4 mg/kg respectively and the dosage of Chl of 0.3125, 0.625, 1.25 mg/kg respectively;
According to the clinical single-drug specification, the ratios of Can+Chl are set as follows:
For the ratio of Can:Chl=1:6.25, one dose of 0.1+0.625 mg/kg is set;
For the ratio of Can:Chl=1:3.125, two doses of 0.2+0.625 and 0.4+1.25 mg/kg are set;
For the ratio of Can:Chl=1.28:1, one dose of 0.4+0.3125 mg/kg is set;
For the ratio of Can:Chl=2.56:1, one dose of 0.4+0.15625 mg/kg is set;
The administration volumes are all 5 mL/kg. Rats are continuously administered for 14 days. SBPs are measured 2, 4, 8, 12 and 24 hours after the first administration. On the day of 3, 7, 14 days after administration, the blood pressures are measured before administration and 5 hours after administration. Areas under blood pressure reduction-time curve from 0 to 24 h and from 0 to 14 days (AUC0-24h, AUC0-14d) are calculated.
as §3

patients = conditions: study in 1714 patients; cited from earlier work
[3] = 25-50 mg/d of hydrochlorothiazide; clinical studies; cited from earlier work
[4] = clinical studies; cited from earlier work
[5] = listed as candesartan cilexetil

## CCOc1nc2cccc(C(=O)OC(C)OC(=O)OC3CCCCC3)c2n1Cc1ccc(-c2ccccc2-c2nn[nH]n2)cc1 (stereo not shown) [Can, Candesartan cilexetil]
[1]
  maximum reduction of the blood pressure: −19.0 mmHg
  AUC0-24h (area under blood pressure reduction-time curve): −127.0 mmHg · h
[1]; [5]
  maximum reduction of the blood pressure: 19.0 mmHg
  AUC0-24h (area under blood pressure reduction-time curve): −127 mmHg · h
[1]; 2 h after last administration
  SBP: 192 mmHg
  SBP difference value compared with the basic value: (−11.0 mmHg
[1]; 4 h after last administration
  SBP: 185 mmHg
  SBP difference value compared with the basic value: (−17.7 mmHg
[1]; 8 h after last administration
  SBP: 196 mmHg
  SBP difference value compared with the basic value: (−7.3 mmHg
[1]; 12 h after last administration
  SBP: 199 mmHg
  SBP difference value compared with the basic value: (−3.7 mmHg
[1]; 24 h after last administration
  SBP: 204 mmHg
  SBP difference value compared with the basic value: (1.4 mmHg
[1]; pre-administration
  SBP: 201 mmHg
  SBP difference value compared with the basic value: (−2.0 mmHg
[1]; Can 0.36 mg/kg oral
  period after administration with significant reduction of SBP: 2 to 8 h
  time at which the antihypertensive effect takes effect after administration: 2 h
[2]; Can 0.1 mg/kg i.g. for 14 days
  AUC0-14d: −149.9 mmHg · d
[2]; Can 0.1 mg/kg i.g.
  AUC0-24h: −209.1 mmHg · h
[2]; Can 0.2 mg/kg i.g. for 14 days
  AUC0-14d: −173.1 mmHg · d
[2]; Can 0.2 mg/kg i.g.
  AUC0-24h: −237.7 mmHg · h
[2]; Can 0.4 mg/kg i.g. for 14 days
  AUC0-14d: −227.3 mmHg · d
[2]; Can 0.4 mg/kg i.g.
  AUC0-24h: −326.0 mmHg · h and −326 mmHg · h

## CCOc1nc2cccc(C(=O)O)c2n1Cc1ccc(-c2ccccc2-c2nc(=O)o[nH]2)cc1 [azilsartan]
patients
  reduction of SBP compared with the basic value: 12.1-15.9 mmHg

## NS(=O)(=O)c1cc2c(cc1Cl)NCNS2(=O)=O [hydrochlorothiazide, Hydrochlorothiazide]
[3]
  lowering of 24-hour blood pressure: 7.4 mmHg
  lowering of night-time blood pressure: 6.4 mmHg

## NCCCC[C@H](N[C@@H](CCc1ccccc1)C(=O)O)C(=O)N1CCC[C@H]1C(=O)O [lisinopril]
[4]
  valid control rate of blood pressure: 61.2%
